Data as given in patent publication US20170298361A1, “USE OF AGENTS FOR TREATING FAT-RELATED DISORDERS” (Yeda Research and Development Co. Ltd., priority 2014, published 2017).
“Also recorded” adds a separate entry of the source. Peptide text beside a SMILES is read from it. * marks the point of attachment. Cbz = O=C(OCc1ccccc1)*

Key:
[1] = system: PPARγ2; assay: PPARγ2 accumulation after proteasomal inhibition in c-Abl-depleted 3T3-L1 cells (immunoblotting); assay type: cell-based, mouse; conditions: c-Abl-depleted 3T3-L1, day 5 of differentiation, 25 μg MG-132, lysed after 5 h
Description: FIGS. 2A-C illustrate that c-Abl prolongs PPARγ2 half-life. (A) Proteasomal inhibition in mid-differentiation results in PPARγ2 accumulation. 3T3-L1 cells expressing shRNA to GFP (control) or c-Abl were induced to differentiate using insulin, dexamethasone and IBMX. On day 5, cells were treated with 25 μg MG-132 and lysed after 5 h. Protein levels were analyzed by immunoblotting. (B) c-Abl stabilizes PPARγ2. HEK293 cells were transfected with plasmids expressing HA-PPARγ2 with or without active c-Abl. Twenty-four hours after transfection, cells were treated with 20 μg/ml cycloheximide for different time points. […] The ratio between immunoprecipitated poly-ubiquitinated PPARγ2 ladder and PPARγ2 protein level from 3 independent experiments was quantified (*** −p<0.005).
The present inventors investigated whether c-Abl might play a role in PPARγ2 accumulation. […] Next, the present inventors measured PPARγ2 protein half-life in the presence or absence of an active form of c-Abl (41-81 c-Abl). […] To investigate the possibility that c-Abl supports PPARγ2 stabilization via inhibition of the poly-ubiquitination of PPARγ2, an octameric tandem fusion of HA-tagged ubiquitin was co-expressed together with Flag-tagged PPARγ2 with or without active c-Abl and the pattern of the poly-ubiquitinated PPARγ2 ladder was analyzed.

[2] = system: HA-PPARγ1
[3] = system: PPARγ2 (wild type, Flag-tagged)
[4] = system: PPARγ2 P12A variant
[5] = system: 3T3-L1 cells; assay: Adipocyte differentiation of 3T3-L1 cells, oil red O staining; assay type: cell-based, mouse
Description: FIGS. 1A-E illustrate that c-Abl is required for adipocyte differentiation. (A) c-Abl activity increases during adipogenesis. 3T3-L1 adipoblasts were induced to differentiate with medium containing 5 μg/ml Insulin, 1 μM Dexamethasone and 0.5 mM IBMX. Cells were lysed at the indicated times and protein levels were analyzed by Western blotting. The proteasomal subunit PSMA4 served as a loading control. […] Cells were stained with oil red O and photographed at day 8. (C) c-Abl is required in adipocyte differentiation. 3T3-L1 expressing shRNA against either GFP or c-Abl were induced to differentiate and stained with oil red 0 at day 10. (D) c-Abl is required for expression of PPARγ and its target genes during adipogenesis. 3T3-L1 cells expressing shRNA against either GFP or c-Abl were induced to differentiate as in (A). Cells were lysed at the indicated times and protein levels were analyzed by Western blotting. (E) c-Abl is required for transcription of PPARγ pro-adipogenic target genes but not for transcription of PPARγ itself. At day 4 of differentiation, RNA from 3T3-L1 cells was analyzed for mRNA expression of the indicated genes by quantitative PCR.
FIG. 15 are photographs illustrating differentiation of 3T3-L1 preadipocytes with or without Chk1 inhibitor, UCN-01. […]

[6] = system: mesenchymal stromal cells; conditions: Fitter S, et al. (2008); cited from earlier work
[7] = system: CML patients; conditions: Fitter S, et al. (2010); cited from earlier work

## CC(C)C[C@@H](C=O)NC(=O)[C@H](CC(C)C)NC(=O)[C@H](CC(C)C)NC(=O)OCc1ccccc1 [MG-132] (Cbz-Leu-Leu-Leu-aldehyde)
[1]
  PPARγ2 protein level: markedly increased

## c-Abl Δ1-81 (active form of c-Abl)
[2]
  tyrosine phosphorylation detected with anti-phosphotyrosine antibody (PY20) after immunoprecipitation using anti-HA beads: HA-PPARγ1 was only poorly phosphorylated by c-Abl
[3]
  tyrosine phosphorylation of PPARγ2 detected with anti-phosphotyrosine antibody (PY20) after immunoprecipitation: unlike HA-PPARγ2, HA-PPARγ1 was only poorly phosphorylated by c-Abl (FIG. 3D). Similar results were obtained using Flag-PPARγ2
[4]
  tyrosine phosphorylation detected with anti-phosphotyrosine antibody (PY20) after immunoprecipitation using anti-Flag beads: the P12A variant was inefficient in binding to c-Abl and in undergoing phosphorylation by the kinase

## Cc1ccc(NC(=O)c2ccc(CN3CCN(C)CC3)cc2)cc1Nc1nccc(-c2cccnc2)n1 [STI-571, imatinib]
[5]; 3T3-L1 induced with insulin, dexamethasone, IBMX, STI-571 added 7 hours after differentiation onset until day 5, oil red O at day 8, even at low inhibitor concentration
  adipogenesis (adipocyte differentiation): markedly reduced; also recorded: inhibits adipocyte differentiation
[6]
  adipocytic differentiation of mesenchymal stromal cells: promote adipocytic differentiation
[7]
  fat accumulation: associated with fat accumulation
  insulin sensitivity: improved insulin sensitivity

## CN[C@@H]1C[C@H]2O[C@@](C)([C@@H]1OC)n1c3ccccc3c3c4c(c5c6ccccc6n2c5c31)C(=O)N[C@@H]4O [UCN-01]
[5]; with or without Chk1 inhibitor UCN-01 (FIG. 15)
  differentiation of 3T3-L1 preadipocytes: completely inhibit
